Test results reported in patent publication US10668125B2, “Peptide having highly-shifted accumulation to pancreatic cancer cells and tissues, and use of said peptide” (Niigata University, priority 2015, dated 2020).
Where no end group is shown, it is not given here.

Columns and labels:
[1] = test system: KYN-2 cells and normal cells originating from various tissues; experiment: Test Example 1: accumulation of peptide to other cancer cells and normal cells (fluorescence microscope); assay type: cell-based, human; settings: FITC-labeled peptide 2 μM, 2 hours at 37° C., FIG. 1
Method: (§1) These were maintained by subculture in the laboratory by the inventors.
(§2) Pancreatic cancer cells and HPNE cells were cultured using a 5% FBS-containing CS-C medium kit. KYN-2 cells, HaCaT cells, NHDF cells, MMNK-1 cells, and Liver cells were cultured using 10% FBS-containing RPMI1640 medium. Kidney cells were cultured using a proliferation medium for normal human renal epithelial cells (RenaLife Comp Kit). NuLi-1 cells were cultured using BEGM medium (Bronchial Epithelial Growth Medium, Serum-free). TIME cells were cultured using EBM-2-MV Bullet kit (Endothelial Cell Basal Medium-2 Bullet kit).
(§3) Those cells were cultured for 2 hours at 37° C. Subsequently, the cells were washed three times with the medium in order to remove the peptide-containing medium. Subsequently, the uptake of the various peptides in the living cells was visually evaluated using an inverted type fluorescence microscope. Prior to the microscopic examination, the culture supernatant containing the peptides were removed, the cells were washed three times with 1×PBS (−), and then the cells were treated with trypsin. Adherent cells were detached and were immediately transferred into a fresh 96-well plate. The cells were resuspended in a fresh culture fluid, and then a microscopic examination was performed.

BxPC3 cells [2] = experiment: Test Example 1: quantitative fluorescence in BxPC3 cells relative to HPNE cells; assay type: cell-based, human; settings: absorption into normal pancreatic duct epithelial cells (HPNE) designated as 1.0, 2 μM, 2 hours, FIG. 2B
Method: as §3
The graph of FIG. 2A is a graph showing the proportions of fluorescence intensities detected in various cells, the proportions being obtained by quantitatively analyzing the fluorescence detected in the various cells to which various peptides were added in Test Example 1, and determining relative values by designating the fluorescence detected in HPNE cells, which are a human immortalized normal pancreatic duct epithelial cell line, as 1.0. […]

[3] = test system: various pancreatic cancer cells (BxPC3, PK-8, PL45, AsPC1, Panc1); experiment: Test Example 1: accumulation of peptide to pancreatic cancer cells (fluorescence microscope); assay type: cell-based, human; settings: FITC-labeled peptide 2 μM, 2 hours at 37° C., FIG. 1
Method: as §1, §2, §3

Panc1 cells = experiment: Test Example 2: accumulation of peptide in tissues of mouse intraperitoneally transplanted with Panc1 cells; assay type: in vivo; settings: NOD-SCID mice with Panc1 cells, i.v. 300 μg per 20 g body weight, 30 minutes after administration, FIG. 3A
Method: (§4) NOD-SCID mice (six-week-old female mice purchased from Crea-Japan, Inc.) intraperitoneally transplanted with Panc1 cells or PK-8 cells, which are human pancreatic cancer cells, in an amount of 1×10^6 cells in each animal, were produced as human pancreatic cancer cell-transplanted mice. Thirty days after the transplantation of human pancreatic cancer cells, Peptide 1 produced in Example 1 was intravenously (i.v.) injected to the mice in an amount of 300 μg with respect to 20 g of the mouse body weight. […] In FIG. 3A and FIG. 3B, the “Bright Field” refers to images taken in the bright field, and “FITC” refers to images taken in the dark field under the conditions of green fluorescence excitation at a wavelength of 488 nm.

PK-8 cells = experiment: Test Example 2: accumulation of peptide in tissues of mouse intraperitoneally transplanted with PK-8 cells; assay type: in vivo; settings: NOD-SCID mice with PK-8 cells, i.v. 300 μg per 20 g body weight, 30 minutes after administration, FIG. 3B
Method: as §4

BxPC3 cells [4] = experiment: Test Example 3: accumulation of peptide in tissues of mouse with BxPC3 cells transplanted into the pancreas; assay type: in vivo
Method: NOD-SCID mice (six-week-old female mice purchased from Crea-Japan, Inc.) having BxPC3 cells, which are human pancreatic cancer cells, transplanted into the pancreas in an amount of 1×10^6 cells in each animal, were produced as human pancreatic cancer cell-transplanted mice. Thirty days after the transplantation of human pancreatic cancer cells, Peptide 4 produced in Example 1 was intravenously (i.v.) injected to the mice in an amount of 150 μg with respect to 20 g of the mouse body weight. […] In FIG. 4, the “Bright Field” refers to images taken in the bright field, and “FITC” refers to images taken in the dark field under the conditions of green fluorescence excitation at a wavelength of 488 nm. Furthermore, in FIG. 4, “brain” means the brain, “heart” means the heart, “kidney” means the kidney, “liver” means the liver, “lung” means the lung, “muscle” means the skeletal muscle, “pancreas” means the pancreas, “spleen” means the spleen, and “tumor” means a malignant tumor. “Surface” means the surface of various organs, and “transection” means a transverse section of various organs.
FIG. 5 is a graph showing the proportions of the fluorescence intensities detected in various tissues, the proportions being obtained by designating the fluorescence detected in normal pancreas as 1.0.

ARRYTWIRA (also: FITC label, site not given here) [Peptide 2, IVV library-derived 9-amino acid residue peptide, synthesized FITC-labeled]
fluorescence detected in KYN-2 cells and normal cells originating from various tissues [1]: fluorescence was hardly detected | absorption ratio (S/N ratio) into BxPC3 cells (BxPC3 cells [2]): about 6 times | fluorescence detected in the various pancreatic cancer cells [3]: strong fluorescence was detected

GYRRTTPSYWRMWLR (also: FITC label, site not given here) [Peptide 1, IVV library-derived 15-amino acid residue peptide, synthesized FITC-labeled]
fluorescence of FITC in tumor lesions and normal organs (Panc1 cells): strong fluorescence of FITC was detected in the tumor and the metastatic lesions | fluorescence detected in KYN-2 cells and normal cells originating from various tissues [1]: fluorescence was hardly detected | absorption ratio (S/N ratio) into BxPC3 cells (BxPC3 cells [2]): about 6 times | fluorescence detected in the various pancreatic cancer cells [3]: strong fluorescence was detected | fluorescence of FITC in tumor lesions and normal organs (PK-8 cells): strong fluorescence of FITC was detected in the tumor and the metastatic lesions

RAWRQCRWR (also: FITC label, site not given here) [Peptide 3, IVV library-derived 9-amino acid residue peptide, synthesized FITC-labeled]
fluorescence detected in KYN-2 cells and normal cells originating from various tissues [1]: fluorescence was hardly detected | fluorescence detected in the various pancreatic cancer cells [3]: strong fluorescence was detected

RRPTTWHKP (also: FITC label, site not given here) [Peptide 4, IVV library-derived 9-amino acid residue peptide, synthesized FITC-labeled]
fluorescence detected in KYN-2 cells and normal cells originating from various tissues [1]: fluorescence was hardly detected | fluorescence detected in the various pancreatic cancer cells [3]: strong fluorescence was detected | fluorescence of FITC in tumor lesions and normal organs (BxPC3 cells [4]; NOD-SCID mice with BxPC3 cells in pancreas, i.v. 150 μg per 20 g body weight, 30 minutes after administration, FIG. 4): strong fluorescence of FITC was detected in the tumor and the kidneys | S/N ratio in the target malignant tumor (BxPC3 cells [4]; absorption into normal pancreas designated as 1.0, i.v. 150 μg per 20 g, 30 minutes, FIG. 5): about 9 times | S/N ratio in the kidneys (BxPC3 cells [4]; absorption into normal pancreas designated as 1.0, i.v. 150 μg per 20 g, 30 minutes, FIG. 5, ascribed to urinary excretion, not cell uptake): about 11 times
